According to PMC9182199, “Borylated 2,3,4,5-Tetrachlorophthalimide and Their 2,3,4,5-Tetrachlorobenzamide Analogues: Synthesis, Their Glycosidase Inhibition and Anticancer Properties in View to Boron Neutron Capture Therapy” (Molecules, 2022):

How the values were obtained:
porcine kidney trehalase = assay: Glycosidase inhibition, laboratory 1: trehalase; assay type: biochemical; details: methanol
Source text: (§1) The enzymes α-glucosidase (from yeast), β-glucosidases (from almond and bovine liver), α-galactosidase (from coffee beans), β-galactosidase (from bovine liver), α-mannosidase (from Jack bean), β-mannosidase (from snail), α-L-rhamnosidase (from Penicillium decumbens), α-L-fucosidase (from bovine kidney), trehalase (from porcine kidney), β-glucuronidases (from E. coli and bovine liver), amyloglucosidase (from A. niger), para-nitrophenyl glycosides, and various disaccharides were purchased from Sigma-Aldrich Co (St Louis, MO, USA).
(§2) Brush border membranes were prepared from the rat small intestine according to the method of Kessler et al. and were assayed at pH 6.8 for rat intestinal maltase using maltose. For rat intestinal maltase, porcine kidney trehalase, and A. niger amyloglucosidase activities, the reaction mixture contained 25 mM maltose and the appropriate amount of enzyme, and the incubations were performed for 10–30 min at 37 °C. The reaction was stopped by heating at 100 °C for 3 min. After centrifugation (600× g; 10 min), the resulting reaction mixture was added to the Glucose CII-test Wako (Wako Pure Chemical Ind., Osaka, Japan). The absorbance at 505 nm was measured to determine the amount of the released D-glucose. Other glycosidase activities were determined using an appropriate para-nitrophenyl glycoside as substrate at the optimum pH of each enzyme. The reaction mixture contained 2 mM of the substrate and the appropriate amount of enzyme. The reaction was stopped by addition of 400 mM Na2CO3. The released para-nitrophenol was measured spectrometrically at 400 nm. All reactions run in methanol.

Jack bean α-mannosidase [1] = molecular target: T1, Jack bean α-mannosidase (Canavalia ensiformis, UniProt C0HJB3); assay: Glycosidase inhibition, laboratory 2: Jack bean α-mannosidase; assay type: biochemical; details: for inhibition at 400 µM: read-out: % inhibition at ~400 μM, water; for % inhibition at ~400 μM: water
T1 construct: purchased Sigma-Aldrich Co
T1 sequence (C0HJB3 1-981): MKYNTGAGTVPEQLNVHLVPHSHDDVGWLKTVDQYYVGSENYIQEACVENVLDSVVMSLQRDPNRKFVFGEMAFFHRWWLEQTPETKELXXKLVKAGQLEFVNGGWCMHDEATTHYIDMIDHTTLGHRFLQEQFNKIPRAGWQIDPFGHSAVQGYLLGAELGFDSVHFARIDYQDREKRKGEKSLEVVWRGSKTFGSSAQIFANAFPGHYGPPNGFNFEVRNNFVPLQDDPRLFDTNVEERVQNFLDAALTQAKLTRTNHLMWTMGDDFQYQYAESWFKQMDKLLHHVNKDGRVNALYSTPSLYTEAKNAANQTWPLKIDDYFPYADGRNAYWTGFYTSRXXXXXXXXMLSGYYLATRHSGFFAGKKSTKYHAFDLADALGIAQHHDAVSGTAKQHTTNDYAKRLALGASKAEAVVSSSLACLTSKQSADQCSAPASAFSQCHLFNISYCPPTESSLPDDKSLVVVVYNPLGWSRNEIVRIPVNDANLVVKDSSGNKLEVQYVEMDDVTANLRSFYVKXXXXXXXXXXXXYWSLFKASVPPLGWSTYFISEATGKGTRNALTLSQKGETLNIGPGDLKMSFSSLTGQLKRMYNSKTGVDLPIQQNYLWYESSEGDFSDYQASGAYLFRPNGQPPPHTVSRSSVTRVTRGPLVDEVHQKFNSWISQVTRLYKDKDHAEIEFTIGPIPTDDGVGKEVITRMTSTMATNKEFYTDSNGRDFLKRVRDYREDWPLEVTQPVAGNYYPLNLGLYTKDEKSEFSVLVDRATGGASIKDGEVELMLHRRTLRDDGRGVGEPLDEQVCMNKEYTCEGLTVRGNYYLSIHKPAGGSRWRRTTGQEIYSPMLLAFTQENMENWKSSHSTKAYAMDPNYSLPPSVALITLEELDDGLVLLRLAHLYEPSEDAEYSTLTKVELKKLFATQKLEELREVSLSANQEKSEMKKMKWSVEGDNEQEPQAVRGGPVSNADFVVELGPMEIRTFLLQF
Procedure: (§3) All enzymes and para-nitrophenyl substrates were purchased from Sigma. Enzymes were assayed at 27 °C in 0.1 M citric acid/0.2 M disodium hydrogen phosphate buffers at the optimum pH for the enzyme. The incubation mixture consisted of 10 μL enzyme solution, 10 μL of 1 mg/mL aqueous solution of extract and 50 μL of the appropriate 5 mM para-nitrophenyl substrate made up in buffer at the optimum pH for the enzyme. The reactions were stopped by addition of 70 μL 0.4 M glycine (pH 10.4) during the exponential phase of the reaction, which had been determined at the beginning using uninhibited assays in which water replaced inhibitor. Final absorbances were read at 405 nm using a Versamax microplate reader (Molecular Devices). Assays were carried out in triplicate, and the values given are means of the three replicates per assay. All reactions run in water.

[2] = test system: bovine kidney N-acetyl-β-glucosaminidase; assay: Glycosidase inhibition, laboratory 2: N-acetyl-β-glucosaminidase; assay type: biochemical; details: water
Procedure: as §3

U87 = assay: MTT cell growth inhibition: U87; assay type: cell-based; details: U87 glioblastoma; for inhibition at 25 µM / GI50: Homo sapiens, U-87 MG; for inhibition at 25 µM / Percentage (%) Cell Growth Inhibition in response to 25 µM of Drug: 72 h, MTT; for inhibition at 25 µM: read-out: Percentage (%) Cell Growth Inhibition in response to 25 µM of Drug; for GI50: read-out: GI50 = Concentration (µM) that inhibits cell growth by 50%, dose response
Procedure: All test agents were prepared as stock solutions (20 mM) in dimethyl sulfoxide (DMSO) and stored at −20 °C. Cell lines used in the study included HT29 (colorectal carcinoma); U87, SJ-G2, (glioblastoma); MCF-7, (breast carcinoma); A2780 (ovarian carcinoma); H460 (lung carcinoma); A431 (skin carcinoma); Du145 (prostate carcinoma); BE2-C (neuroblastoma); MiaPaCa-2 (pancreatic carcinoma); and SMA560 (spontaneous murine astrocytoma), together with the one non-tumour-derived normal breast cell line (MCF10A). All cell lines were incubated in a humidified atmosphere 5% CO2 at 37 °C. The cancer cell lines were maintained in Dulbecco’s modified Eagle’s medium (DMEM; Sigma, Australia) supplemented with foetal bovine serum (10%), sodium pyruvate (10 mM), penicillin (100 IUmL^−1), streptomycin (100 µg mL^−1) and L-glutamine (2 mM).
Growth inhibition was determined by plating cells in duplicate in medium (100 µL) at a density of 2500–4000 cells per well in 96-well plates. On day 0 (24 h after plating), when the cells were in logarithmic growth, medium (100 µL) with or without the test agent was added to each well. After 72 h drug exposure, growth inhibitory effects were evaluated using the MTT (3-(4,5-dimethyltiazol-2-yl)-2,5-diphenyltetrazolium bromide) assay and absorbance read at 540 nm. The percentage growth inhibition was calculated at a fixed concentration of 25 µM, based on the difference between the optical density values on day 0 and those at the end of drug exposure. Each data point is the mean ± the standard error of the mean (SEM) calculated from three replicates which were performed on separate occasions and separate cell line passages.

yeast α-glucosidase = molecular target: T2, yeast α-glucosidase (Saccharomyces cerevisiae, UniProt P53341); assay: Glycosidase inhibition, laboratory 1: yeast α-glucosidase; assay type: biochemical; details: methanol
T2 construct: purchased Sigma
Source text: as §1, §2

Jack bean α-mannosidase [3] = molecular target: T1, Jack bean α-mannosidase; assay: Glycosidase inhibition, laboratory 1: Jack bean α-mannosidase; assay type: biochemical; details: methanol
Source text: as §1, §2

T2 sequence (P53341 whole entry): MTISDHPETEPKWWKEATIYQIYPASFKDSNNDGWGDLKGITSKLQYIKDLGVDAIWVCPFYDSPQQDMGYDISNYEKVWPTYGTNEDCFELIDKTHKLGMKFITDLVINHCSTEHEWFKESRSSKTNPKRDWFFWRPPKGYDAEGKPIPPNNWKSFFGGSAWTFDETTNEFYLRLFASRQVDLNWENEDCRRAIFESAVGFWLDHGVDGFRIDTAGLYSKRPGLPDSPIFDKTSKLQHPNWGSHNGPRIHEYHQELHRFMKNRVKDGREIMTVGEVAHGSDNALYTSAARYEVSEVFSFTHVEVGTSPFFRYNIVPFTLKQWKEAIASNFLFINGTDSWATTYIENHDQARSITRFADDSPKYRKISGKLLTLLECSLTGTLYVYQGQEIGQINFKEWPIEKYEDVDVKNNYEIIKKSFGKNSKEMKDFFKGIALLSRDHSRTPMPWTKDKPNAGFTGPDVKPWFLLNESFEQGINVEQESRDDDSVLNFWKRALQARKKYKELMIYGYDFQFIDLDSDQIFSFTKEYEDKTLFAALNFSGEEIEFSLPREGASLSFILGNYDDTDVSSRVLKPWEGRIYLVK

| Compound | inhibition % at 100 μM (porcine kidney trehalase) | inhibition at 400 µM (Jack bean α-mannosidase [1]) | inhibition at 25 µM (U87) | % inhibition at ~400 μM [2] | GI50 (U87) | inhibition at 100 µM (yeast α-glucosidase; 100 μM) | inhibition at 100 µM (Jack bean α-mannosidase [3]; 100 μM) | further results |
| --- | --- | --- | --- | --- | --- | --- | --- | --- |
| N[C@@H](Cc1ccc(B(O)O)cc1)C(=O)O [BPA, 4-borono-L-phenylalanine, reference compound] | ^cNI ^d (0%) | 0.6% | < 0% |  |  |  |  | % inhibition at ~400 μM ([2]; 400 µM): 6.7% |
| N[C@@H](Cc1ccc(B(O)O)cc1)C(=O)O [^10B-BPA, reference compound] | ^cNI ^d (0%) |  |  |  |  |  |  | inhibition % at 100 μM (yeast α-glucosidase; 100 μM): ^cNI ^d (0%); inhibition % at 100 μM (Jack bean α-mannosidase [3]; 100 μM): ^cNI ^d (0%); % inhibition at ~400 μM (Jack bean α-mannosidase [1]): −0.7%; % inhibition at ~400 μM ([2]; 400 µM): 6.3%; Percentage (%) Cell Growth Inhibition in response to 25 µM of Drug (U87): <0% |
| CC1(C)OB(c2cccc(CN3C(=O)c4c(Cl)c(Cl)c(Cl)c(Cl)c4C3=O)c2)OC1(C)C [meta 3, 4,5,6,7-Tetrachloro-2-(3-(4,4,5,5-tetramethyl-1,3,2-dioxaborolan-2-yl)benzyl)isoindoline-1,3-dione] | ^aNI ^b (0%) | 30.3% | 70 ± 8% | 17.1% | 19 ± 1.5 µM |  |  | inhibition at 10 µM (yeast α-glucosidase): 0%; inhibition at 10 µM (Jack bean α-mannosidase [3]): 2.7% |
| CC1(C)OB(c2cccc(NC(=O)c3cc(Cl)c(Cl)c(Cl)c3Cl)c2)OC1(C)C [meta 5, 2,3,4,5-tetrachloro-N-(3-(4,4,5,5-tetramethyl-1,3,2-dioxaborolan-2-yl)phenyl)benzamide] | ^aNI ^b (0%) | 2.2% | < 0% | 30.6% |  | 12.8% | 7.6% |  |
| CC1(C)OB(c2ccccc2NC(=O)c2cc(Cl)c(Cl)c(Cl)c2Cl)OC1(C)C [ortho 5, 2,3,4,5-Tetrachloro-N-(2-(4,4,5,5-tetramethyl-1,3,2-dioxaborolan-2-yl)phenyl)benzamide] |  | 0% | 58 ± 5% | 28.8% | 25 ± 2.6 µM |  |  | inhibition at 10 µM (yeast α-glucosidase): 0%; inhibition at 10 µM (Jack bean α-mannosidase [3]): 3.4%; inhibition % at 10 μM (porcine kidney trehalase; 10 μM): ^cNI ^d (1.2%) |
| CC1(C)OB(c2ccccc2CNC(=O)c2cc(Cl)c(Cl)c(Cl)c2Cl)OC1(C)C [ortho 8, 2,3,4,5-tetrachloro-N-(2-(4,4,5,5-tetramethyl-1,3,2-dioxaborolan-2-yl)benzyl)benzamide] | ^aNI ^b (16.8%) | -6.1% | < 0% | 28.3% |  | 0% | 12.5% |  |
| CC1(C)OB(c2ccc(CN3C(=O)c4c(Cl)c(Cl)c(Cl)c(Cl)c4C3=O)cc2)OC1(C)C [para 3, 4,5,6,7-Tetrachloro-2-(4-(4,4,5,5-tetramethyl-1,3,2-dioxaborolan-2-yl)benzyl)isoindoline-1,3-dione] | ^aNI ^b (0%) | 16.5% | > 100% | 8.3% | 4.2 ± 1 µM | 0% | 0% |  |
| CC1(C)OB(c2ccc(NC(=O)c3cc(Cl)c(Cl)c(Cl)c3Cl)cc2)OC1(C)C [para 5, 2,3,4,5-tetrachloro-N-(4-(4,4,5,5-tetramethyl-1,3,2-dioxaborolan-2-yl)phenyl)benzamide] | ^aNI ^b (0%) | -8.2% | 21 ± 16% | 20.6% |  | 0% | 19.3% |  |
| Borocaptate sodium [BSH, reference compound] |  |  |  | 37.1% |  |  |  | inhibition % at 1000 μM (yeast α-glucosidase; 1000 μM): ^aNI ^b(6.9%); inhibition % at 1000 μM (Jack bean α-mannosidase [3]; 1000 μM): ^aNI ^b (7.9%); inhibition % at 1000 μM (porcine kidney trehalase; 1000 μM): ^aNI ^b (4.2%); % inhibition at ~400 μM (Jack bean α-mannosidase [1]): −18.7%; Percentage (%) Cell Growth Inhibition in response to 25 µM of Drug (U87): <0% |
